Like-named read-outs stand apart in the source and are kept apart here.
Experiments:
[1] = Pharmacokinetics of LUM001 after oral gavage in rats; type: in vivo; conditions: both sexes, Sprague Dawley, rat, plasma; for bioavailability: read-out: BA (bioavailability); for AUC(0-t): read-out: AUC(0-8 h)
Protocol: Groups of fasted Sprague Dawley rats (n=6/sex/group) were administered LUM001 as a single oral solution dose of either 1, 5 or 30 mg LUM001 free form/kg. The dose of 5 mg LUM001 free form/kg was also administered to rats in a fed state to evaluate the effect of food on plasma concentrations of LUM001 free form. Since LUM001 is a chloride salt, 105% of the amount of LUM001 is required to deliver the stated dose of the free form. The oral dose was delivered to the rat in Tween 80Milli-Q water (0.2% Tween, v/v) and was prepared on the day of dosing.
Blood samples of approximately 1 mL (n=2/sex/timepoint/treatment group) were collected by retro-orbital bleed into chilled tubes containing heparin at timepoints 0 (predose), 0.25, 0.5, 1, 1.5, 2, 3, 5 and 8 hours. The plasma samples were prepared by centrifugation of blood within 30 minutes after sample collection. All samples were stored at −20° C.±5° C. until analysis to study the relative exposures of LUM001 free form after oral solution dosing. The concentration of LUM001 free form in plasma were determined using an LCMSMS method. The assay sensitivity was 2.38 ng/mL.
Means and standard errors of the means (SEM) were calculated for plasma concentrations at each time point. Mean values are significant to three figures and SEM values are significant to the same decimal place as the corresponding mean. Concentration values less than the assay sensitivity (2.38 ng LUM001 free form/mL) were reported as zero. The area under the plasma concentration-time curve (AUC) was calculated from time 0 to 8 hours using a non-compartmental model in WinNonlin (1). The bioavailability (% BA) of LUM001 after oral administration of LUM001 was calculated according to the equation below:
% BA=[AUC oral (0-8)/AUC IV(0-8)/Dose oral/Dose IV]×100.

fecal bile acids = experiment: Fecal bile acid excretion, ascending multiple oral doses of LUM001 in healthy adults; type: in vivo, human
Protocol: This Phase 1 study was a randomized, double-blind, placebo-controlled study of ascending multiple oral doses of LUM001 in healthy, adult subjects. This study was conducted at a single center. There were 13 LUM001 dosing panels: 10, 20, 60, 100, and 20 mg every morning (qAM) (2) (i.e., the regimen was tested a second time in the study), 5 mg every evening (qPM), 0.5, 1, 2.5, 5, 2.5 (2), 5 (2), and 0.5 to 5 mg qAM dose titration. Most of the dosing panels included subjects treated with matching placebo. No subject participated in more than 1 dosing panel. Subjects were randomized into the study by dosing panel, and all subjects within a dosing panel received study medication at approximately the same time each day. Safety was reviewed for each panel before subsequent panels were initiated. A total of 167 subjects were treated for 28 days, 147 with LUM001 and 20 with placebo.
During the Pretreatment Screening Period (Days −31 through −4), subjects were seen on an outpatient basis to determine study eligibility based on enrollment criteria. On Day −3, eligible subjects were admitted to the research facility during the morning. Subjects were confined to the research facility from Days −3 to 30. During the entire period of confinement to the research facility, subjects received a study diet composed of 35% of caloric intake from fat, 15% from protein, and 50% from carbohydrates. The total daily caloric intake (based on the subject's weight) was fixed and divided into 3 equicaloric equal-fat-containing meals. The fixed fat composition and caloric content of the diet was designed to reduce inter- and intra-subject variability of serum total bile acids (SBA) and FBA, lipid parameters, and fat absorption parameters.
On Day 1 of the Treatment Period, subjects who qualified for enrollment were randomized in the order in which they were admitted to the research facility. On the same day, subjects began receiving study medication. Subsequent analyses included clinical and laboratory safety assessments and profiles of PK, PD, and lipid parameters. The safety and tolerability of LUM001 were evaluated by physical examination, ascertainment of adverse signs and symptoms, and clinical laboratory studies. Blood and urine samples were obtained for measurement of LUM001 plasma, whole blood, and urine concentrations for subsequent PK analyses. Efficacy responses included measuring FBA as a surrogate marker for the inhibition of intestinal bile acid transport. For the qAM dosing panels, LUM001 or placebo was administered each day of the treatment period (28 days) immediately prior to the morning meal at approximately 08:00 and after any necessary blood work was drawn.
Fecal samples were collected for all panels except the dose-titration panel, 2.5 (2) and 5 mg (2), on Days 9 through 14 and 23 through 28 (data shown in FIG. 6; *p<0.05; **p<0.01 compared to placebo). Twenty-four hour FBA excretions were quantified by Pharmacia for Days 9 through 14 and 23 through 28. Feces were collected in a 24-hour collection container beginning at 08:00 and ending 24 hours later. This procedure was followed on Days 9 through 14 and 23 through 28, with new collection containers issued for each 24-hour period. The weight of each 24-hour fecal collection was recorded on the CRFs. Specimens were stored in 24-hour containers, frozen at approximately −80° C. prior to analysis.
An aliquot for each 24-hour fecal sample collected on Days 23 through 28 was combined, homogenized, and analyzed for bile acid species concentrations by ANAPHARM. The fecal bile acid species evaluated include chenodeoxycholic acid, cholic acid, deoxycholic acid, and lithocholic acid.

[2] = 5 mg/kg, single oral gavage 5 mg/kg free form, fasted
[3] = 5 mg/kg, single oral gavage 5 mg/kg free form, fed
[4] = 30 mg/kg, single oral gavage 30 mg/kg free form, fasted

CCCCC1(CCCC)CS(=O)(=O)c2ccc(N(C)C)cc2[C@@H](c2ccc(OCc3ccc(C[N+]45CCN(CC4)CC5)cc3)cc2)[C@H]1O [LUM001]
bioavailability ([1]; 1 mg/kg, single oral gavage 1 mg/kg free form, fasted): < 0.1% | Cmax [1, 2]: 2.45 ng/mL | Tmax [1, 2]: 60 min | AUC(0-t) [1, 2]: 6.58 ng·h/mL | bioavailability [1, 2]: 0.1% | Cmax [1, 3]: 3.58 ng/mL | Tmax [1, 3]: 15 min | AUC(0-t) [1, 3]: 12.6 ng·h/mL | bioavailability [1, 3]: 0.2% | Cmax [1, 4]: 5.43 ng/mL | Tmax [1, 4]: 30 min | AUC(0-t) [1, 4]: 4.16 ng·h/mL | bioavailability [1, 4]: < 0.1% | Mean Daily Total Fecal Bile Acids Excretion (fecal bile acids; 0.5 mg (n=16), Days 9-14): 266.8 μmole/24 hr | Mean Daily Total Fecal Bile Acids Excretion (fecal bile acids; 0.5 mg (n=16), Days 23-28): 294.9 μmole/24 hr | Mean Daily Total Fecal Bile Acids Excretion (fecal bile acids; 1.0 mg (n=8), Days 9-14): 642.7 μmole/24 hr | Mean Daily Total Fecal Bile Acids Excretion (fecal bile acids; 1.0 mg (n=8), Days 23-28): 780.3 μmole/24 hr | Mean Daily Total Fecal Bile Acids Excretion (fecal bile acids; 2.5 mg (n=8), Days 9-14): 478.0 μmole/24 hr | Mean Daily Total Fecal Bile Acids Excretion (fecal bile acids; 2.5 mg (n=8), Days 23-28): 590.7 μmole/24 hr | Mean Daily Total Fecal Bile Acids Excretion (fecal bile acids; 5 mg (n=8), Days 9-14): 1105.1 μmole/24 hr | Mean Daily Total Fecal Bile Acids Excretion (fecal bile acids; 5 mg (n=8), Days 23-28): 848.4 μmole/24 hr | Mean Daily Total Fecal Bile Acids Excretion (fecal bile acids; 5 mg qPM (n=15), Days 9-14): 496.9 μmole/24 hr | Mean Daily Total Fecal Bile Acids Excretion (fecal bile acids; 5 mg qPM (n=15), Days 23-28): 593.3 μmole/24 hr | Mean Daily Total Fecal Bile Acids Excretion (fecal bile acids; 10 mg (n=8), Days 9-14): 1237.0 μmole/24 hr | Mean Daily Total Fecal Bile Acids Excretion (fecal bile acids; 10 mg (n=8), Days 23-28): 1126.0 μmole/24 hr | Mean Daily Total Fecal Bile Acids Excretion (fecal bile acids; 20 mg (n=16), Days 9-14): 902.9 μmole/24 hr | Mean Daily Total Fecal Bile Acids Excretion (fecal bile acids; 20 mg (n=16), Days 23-28): 865.2 μmole/24 hr | Mean Daily Total Fecal Bile Acids Excretion (fecal bile acids; 60 mg (n=8), Days 9-14): 973.4 μmole/24 hr | Mean Daily Total Fecal Bile Acids Excretion (fecal bile acids; 60 mg (n=8), Days 23-28): 964.5 μmole/24 hr | Mean Daily Total Fecal Bile Acids Excretion (fecal bile acids; 100 mg (n=8), Days 9-14): 2405.7 μmole/24 hr | Mean Daily Total Fecal Bile Acids Excretion (fecal bile acids; 100 mg (n=8), Days 23-28): 1718.3 μmole/24 hr | Fecal Bile Acids (fecal bile acids; healthy adults, multiple oral doses, 28 days): significant increase in fecal bile acids
